# Assay results: patent US20260027116A1, “Methods of Treating Chronic Graft-Versus-Host Disease Following Allogeneic Hematopoietic Stem Cell Transplantation” (Kadmon Corporation, LLC, priority 2022, published 2026)
# Key:
# cGVHD = assay: Example 2: corticosteroid and other immunosuppressant reduction; format: in vivo, human
# Method: All responses were assessed by the study site investigators.
# lung function = assay: Example 1: percent predicted TLC change from baseline; format: in vivo, human; conditions: Cohort 1: 200 mg QD, mean (SD)
# Method: Change From Baseline in Percent Predicted Total Lung Capacity (TLC) at Each Specified Time Points. TLC is the volume of air in the lungs upon the maximum effort of inspiration. Baseline value was defined as valid and last non-missing value obtained within 28 days prior to participant receiving first study medication. EOT visit was performed within 3 days after the participant's last dose of study drug. […] Analysis was performed on mITT population. Here, ‘number analyzed’=participants with available data for each specified category. Here, ‘0’ in the number analyzed field signifies that none of the participants were available for the analysis at the specified time points.
smiles,measurement,setting,value
"CC(C)NC(=O)COc1cccc(-c2nc(Nc3ccc4[nH]ncc4c3)c3ccccc3n2)c1 [Belumosudil, 2-{3-[4-(1H-indazol-5-ylamino)-2-quinazolinyl]phenoxy}-N-(propan-2-yl) acetamide]","Mean change in CS dose from baseline, Nonresponder",cGVHD; 200 mg daily,−22%
same,"Mean change in CS dose from baseline, Overall",cGVHD; 200 mg daily,−43%
same,"Mean change in CS dose from baseline, Responder",cGVHD; 200 mg daily,−49%
same,CS discontinuation,cGVHD; 200 mg daily (n = 66),13 (20) n (%)
same,Median CS reduction from baseline to greatest reduction,cGVHD; 200 mg daily (n = 66),38%
same,Proportion with CS reduction,cGVHD; 200 mg daily (n = 66),42 (64) n (%)
same,"Mean change in CS dose from baseline, Nonresponder",cGVHD; 200 mg twice daily,−10%
same,"Mean change in CS dose from baseline, Overall",cGVHD; 200 mg twice daily,−48%
same,"Mean change in CS dose from baseline, Responder",cGVHD; 200 mg twice daily,−58%
same,CS discontinuation,cGVHD; 200 mg twice daily (n = 66),15 (23) n (%)
same,Median CS reduction from baseline to greatest reduction,cGVHD; 200 mg twice daily (n = 66),50%
same,Proportion with CS reduction,cGVHD; 200 mg twice daily (n = 66),44 (67) n (%)
same,subjects who discontinued calcineurin inhibitor (CNI) therapy,cGVHD; Example 2,22%
same,subjects who discontinued mycophenolate mofetil,cGVHD; Example 2,21%
same,subjects who discontinued sirolimus,cGVHD; Example 2,20%
same,subjects who reduced corticosteroid dose,cGVHD; Example 2,65%
same,mean corticosteroid dose reduction,"cGVHD; Example 2, mITT",45%
same,mean corticosteroid dose reduction,"cGVHD; Example 2, responders",54%
same,"Mean change in CS dose from baseline, Nonresponder",cGVHD; Total,−16%
same,"Mean change in CS dose from baseline, Overall",cGVHD; Total,−45%
same,"Mean change in CS dose from baseline, Responder",cGVHD; Total,−54%
same,Median CS reduction from baseline to greatest reduction,cGVHD; Total (N = 132),50%
same,Proportion with CS reduction,cGVHD; Total (N = 132),86 (65) n (%)
same,Change From Baseline in Percent Predicted Total Lung Capacity (TLC),"lung function; Cycle 3, Day 1",1.6 (11.9) Percent Predicted TLC
same,Change From Baseline in Percent Predicted Total Lung Capacity (TLC),"lung function; Cycle 5, Day 1",−2.6 (16.8) Percent Predicted TLC
same,Change From Baseline in Percent Predicted Total Lung Capacity (TLC),"lung function; Cycle 7, Day 1",−3.7 (6.6) Percent Predicted TLC
same,Change From Baseline in Percent Predicted Total Lung Capacity (TLC),"lung function; Cycle 9, Day 1",−2.9 (6.1) Percent Predicted TLC
same,Change From Baseline in Percent Predicted Total Lung Capacity (TLC),"lung function; Cycle 11, Day 1",0.7 (4.3) Percent Predicted TLC
same,Change From Baseline in Percent Predicted Total Lung Capacity (TLC),"lung function; Cycle 12, Day 1",−9.0 (—) Percent Predicted TLC
same,Change From Baseline in Percent Predicted Total Lung Capacity (TLC),"lung function; Cycle 13, Day 1",−0.3 (7.1) Percent Predicted TLC
same,Change From Baseline in Percent Predicted Total Lung Capacity (TLC),"lung function; Cycle 14, Day 1",23.0 (—) Percent Predicted TLC
same,Change From Baseline in Percent Predicted Total Lung Capacity (TLC),"lung function; Cycle 15, Day 1",−2.8 (10.8) Percent Predicted TLC
same,Change From Baseline in Percent Predicted Total Lung Capacity (TLC),"lung function; Cycle 16, Day 1",−3.0 (—) Percent Predicted TLC
same,Change From Baseline in Percent Predicted Total Lung Capacity (TLC),"lung function; Cycle 17, Day 1",−3.0 (6.2) Percent Predicted TLC
same,Change From Baseline in Percent Predicted Total Lung Capacity (TLC),"lung function; Cycle 19, Day 1",−4.6 (6.1) Percent Predicted TLC
same,Change From Baseline in Percent Predicted Total Lung Capacity (TLC),"lung function; Cycle 21, Day 1",0.3 (9.3) Percent Predicted TLC
same,Change From Baseline in Percent Predicted Total Lung Capacity (TLC),"lung function; Cycle 23, Day 1",0.0 (8.7) Percent Predicted TLC
same,Change From Baseline in Percent Predicted Total Lung Capacity (TLC),"lung function; Cycle 24, Day 1",0.0 (—) Percent Predicted TLC
same,Change From Baseline in Percent Predicted Total Lung Capacity (TLC),"lung function; Cycle 25, Day 1",−3.0 (7.1) Percent Predicted TLC
same,Change From Baseline in Percent Predicted Total Lung Capacity (TLC),"lung function; Cycle 26, Day 1",0.0 (—) Percent Predicted TLC
same,Change From Baseline in Percent Predicted Total Lung Capacity (TLC),"lung function; Cycle 27, Day 1",5.5 (16.3) Percent Predicted TLC
same,Change From Baseline in Percent Predicted Total Lung Capacity (TLC),"lung function; Cycle 29, Day 1",−1.0 (17.0) Percent Predicted TLC
same,Change From Baseline in Percent Predicted Total Lung Capacity (TLC),"lung function; Cycle 30, Day 1",7.0 (—) Percent Predicted TLC
same,Change From Baseline in Percent Predicted Total Lung Capacity (TLC),"lung function; Cycle 31, Day 1",7.5 (17.7) Percent Predicted TLC
same,Change From Baseline in Percent Predicted Total Lung Capacity (TLC),"lung function; Cycle 32, Day 1",1.0 (—) Percent Predicted TLC
same,Change From Baseline in Percent Predicted Total Lung Capacity (TLC),"lung function; Cycle 33, Day 1",14.0 (11.3) Percent Predicted TLC
same,Change From Baseline in Percent Predicted Total Lung Capacity (TLC),"lung function; Cycle 34, Day 1",2.0 (—) Percent Predicted TLC
same,Change From Baseline in Percent Predicted Total Lung Capacity (TLC),"lung function; Cycle 35, Day 1",10.5 (7.8) Percent Predicted TLC
same,Change From Baseline in Percent Predicted Total Lung Capacity (TLC),"lung function; Cycle 36, Day 1",6.0 (—) Percent Predicted TLC
same,Change From Baseline in Percent Predicted Total Lung Capacity (TLC),"lung function; Cycle 48, Day 1",−13.0 (—) Percent Predicted TLC
same,Change From Baseline in Percent Predicted Total Lung Capacity (TLC),"lung function; Cycle 49, Day 1",5.0 (—) Percent Predicted TLC
same,Change From Baseline in Percent Predicted Total Lung Capacity (TLC),"lung function; Cycle 51, Day 1",15.0 (—) Percent Predicted TLC
same,Change From Baseline in Percent Predicted Total Lung Capacity (TLC),"lung function; Cycle 52, Day 1",1.0 (—) Percent Predicted TLC
same,Change From Baseline in Percent Predicted Total Lung Capacity (TLC),"lung function; Cycle 53, Day 1",15.0 (—) Percent Predicted TLC
same,Change From Baseline in Percent Predicted Total Lung Capacity (TLC),"lung function; Cycle 54, Day 1",4.0 (—) Percent Predicted TLC
same,Change From Baseline in Percent Predicted Total Lung Capacity (TLC),"lung function; Cycle 55, Day 1",29.0 (—) Percent Predicted TLC
same,Change From Baseline in Percent Predicted Total Lung Capacity (TLC),"lung function; Cycle 56, Day 1",9.0 (—) Percent Predicted TLC
same,Change From Baseline in Percent Predicted Total Lung Capacity (TLC),"lung function; Cycle 57, Day 1",18.0 (—) Percent Predicted TLC
same,Change From Baseline in Percent Predicted Total Lung Capacity (TLC),"lung function; Cycle 58, Day 1",5.0 (—) Percent Predicted TLC
same,Change From Baseline in Percent Predicted Total Lung Capacity (TLC),"lung function; Cycle 60, Day 1",−3.0 (—) Percent Predicted TLC
same,Change From Baseline in Percent Predicted Total Lung Capacity (TLC),"lung function; Cycle 61, Day 1",5.0 (—) Percent Predicted TLC
same,Change From Baseline in Percent Predicted Total Lung Capacity (TLC),"lung function; Cycle 62, Day 1",−1.0 (—) Percent Predicted TLC
same,Change From Baseline in Percent Predicted Total Lung Capacity (TLC),"lung function; Cycle 63, Day 1",12.0 (—) Percent Predicted TLC
same,Change From Baseline in Percent Predicted Total Lung Capacity (TLC),"lung function; Cycle 67, Day 1",12.0 (—) Percent Predicted TLC
same,Change From Baseline in Percent Predicted Total Lung Capacity (TLC),lung function; EOT,5.2 (27.5) Percent Predicted TLC
